Several values for one entry are separate records, joined by “and”; a condition that tells them apart may be missing. Equal entries are not always repeated. Where two headings read alike, the source gives them in different places.
Columns and labels:
[1] = test system: MCF-7; experiment: Cell Titer-Glo cell viability: MCF-7; type: cell-based; details: Homo sapiens, MCF7, breast cancer
Method: (§1) Compound nos. […] This panel of cell lines includes an ER− breast carcinoma, primary breast ductal carcinoma, prostate adenocarcinoma, mammary adenocarcinoma, mammary ductal carcinoma, mammary ductal carcinoma, ovary adenocarcinoma, ER+ breast carcinoma, ER-HER2+ mammary ductal carcinoma and an ER+ mammary ductal carcinoma, respectively.
(§2) This assay quantitates the ATP present in order to determine the number of viable cells in culture. Briefly, the compounds were incubated with the cells for 72 h, followed by cell lysis. The resulting luminescent signal is proportional to the amount of ATP present and, therefore, directly proportional to the number of cells present in culture.
(§3) Compounds 2b, 5, 6b and 10a were tested along with derivatives in viability assays as described above by Caliper LifeSciences Systems (Hanover, Md.), in A549, HCT-15, HCT-116, MCF-7, MDA-MB-231, OVCAR3, T47D, COLO205, HT-29, BT-20, HCC1187, HL-60, MDA-MB-175, SW-620, and UACC812 cells.

[2] = test system: HL-60; experiment: Cell Titer-Glo cell viability: HL-60; type: cell-based, human; details: Homo sapiens, HL-60, 72 h
Method: as §2
(§4) Compound nos. […] These cell lines are derived from human lung carcinoma, colon adenocarcinoma, colon adenocarcinoma, colon carcinoma, acute promyelocytic leukemia, colon adenocarcinoma, colon adenocarcinoma (from metastatic site lymph node), respectively.
as §3

[3] = target: IGF1R (Homo sapiens, UniProt P08069); experiment: In vitro IGF-1R enzymatic assay (ADP-Glo kinase assay); type: biochemical; design: purchased Millipore 14-802
IGF1R, sequence (P08069 31-1367): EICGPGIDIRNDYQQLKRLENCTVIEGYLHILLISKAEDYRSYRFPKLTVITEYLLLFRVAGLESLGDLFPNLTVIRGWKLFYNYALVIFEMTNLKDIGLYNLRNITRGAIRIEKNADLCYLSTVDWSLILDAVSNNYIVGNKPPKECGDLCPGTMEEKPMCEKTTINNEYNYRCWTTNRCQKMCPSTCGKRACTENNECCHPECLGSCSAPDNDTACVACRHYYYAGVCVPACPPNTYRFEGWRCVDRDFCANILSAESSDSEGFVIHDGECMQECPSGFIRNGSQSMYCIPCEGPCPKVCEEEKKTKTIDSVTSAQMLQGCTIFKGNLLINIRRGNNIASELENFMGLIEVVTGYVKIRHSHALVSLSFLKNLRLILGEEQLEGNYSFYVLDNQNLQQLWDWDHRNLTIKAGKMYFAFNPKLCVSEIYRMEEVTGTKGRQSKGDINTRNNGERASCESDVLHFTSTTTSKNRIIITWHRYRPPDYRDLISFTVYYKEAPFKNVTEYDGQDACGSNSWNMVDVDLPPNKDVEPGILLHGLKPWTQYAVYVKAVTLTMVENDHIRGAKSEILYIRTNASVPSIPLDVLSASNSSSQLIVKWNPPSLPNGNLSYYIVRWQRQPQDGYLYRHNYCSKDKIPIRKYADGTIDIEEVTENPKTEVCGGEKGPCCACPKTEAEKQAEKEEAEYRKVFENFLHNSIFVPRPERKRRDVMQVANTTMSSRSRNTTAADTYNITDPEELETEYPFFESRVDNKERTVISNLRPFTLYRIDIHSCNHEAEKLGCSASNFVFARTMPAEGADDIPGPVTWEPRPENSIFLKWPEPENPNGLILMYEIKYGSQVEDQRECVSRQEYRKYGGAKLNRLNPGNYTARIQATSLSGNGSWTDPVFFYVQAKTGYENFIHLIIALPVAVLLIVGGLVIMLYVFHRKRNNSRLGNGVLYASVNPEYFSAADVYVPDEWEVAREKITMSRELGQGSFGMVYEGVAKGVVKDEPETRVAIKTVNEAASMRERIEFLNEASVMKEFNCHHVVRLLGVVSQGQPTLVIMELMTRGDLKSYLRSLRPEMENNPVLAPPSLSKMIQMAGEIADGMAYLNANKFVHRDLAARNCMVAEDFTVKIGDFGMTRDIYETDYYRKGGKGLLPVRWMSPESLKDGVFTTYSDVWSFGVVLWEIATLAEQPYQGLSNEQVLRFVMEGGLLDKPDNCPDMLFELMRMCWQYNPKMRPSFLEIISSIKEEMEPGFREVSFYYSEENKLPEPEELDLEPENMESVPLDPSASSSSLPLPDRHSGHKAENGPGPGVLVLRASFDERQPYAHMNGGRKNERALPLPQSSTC
Method: (§5) IC50 values of the compounds of the invention against IGF-1R and IR were measured in vitro using an ADP-Glo kinase assay Kit (Promega). […] Kinase reactions in both assays were conducted at 30° C. for 20 min with increasing concentrations of compounds of the invention.

[4] = test system: HCT-116; experiment: Cell Titer-Glo cell viability: HCT-116; type: cell-based; details: Homo sapiens, HCT116, colon carcinoma
Method: as §2, §4, §3

[5] = test system: BT-20; experiment: Cell Titer-Glo cell viability: BT-20; type: cell-based; details: Homo sapiens
Method: as §1, §2, §3

[6] = target: T1, IR (Homo sapiens, UniProt P06213); experiment: In vitro IR enzymatic assay (ADP-Glo kinase assay); type: biochemical
T1 construct: purchased Millipore 14-803
T1 sequence (P06213 28-1382): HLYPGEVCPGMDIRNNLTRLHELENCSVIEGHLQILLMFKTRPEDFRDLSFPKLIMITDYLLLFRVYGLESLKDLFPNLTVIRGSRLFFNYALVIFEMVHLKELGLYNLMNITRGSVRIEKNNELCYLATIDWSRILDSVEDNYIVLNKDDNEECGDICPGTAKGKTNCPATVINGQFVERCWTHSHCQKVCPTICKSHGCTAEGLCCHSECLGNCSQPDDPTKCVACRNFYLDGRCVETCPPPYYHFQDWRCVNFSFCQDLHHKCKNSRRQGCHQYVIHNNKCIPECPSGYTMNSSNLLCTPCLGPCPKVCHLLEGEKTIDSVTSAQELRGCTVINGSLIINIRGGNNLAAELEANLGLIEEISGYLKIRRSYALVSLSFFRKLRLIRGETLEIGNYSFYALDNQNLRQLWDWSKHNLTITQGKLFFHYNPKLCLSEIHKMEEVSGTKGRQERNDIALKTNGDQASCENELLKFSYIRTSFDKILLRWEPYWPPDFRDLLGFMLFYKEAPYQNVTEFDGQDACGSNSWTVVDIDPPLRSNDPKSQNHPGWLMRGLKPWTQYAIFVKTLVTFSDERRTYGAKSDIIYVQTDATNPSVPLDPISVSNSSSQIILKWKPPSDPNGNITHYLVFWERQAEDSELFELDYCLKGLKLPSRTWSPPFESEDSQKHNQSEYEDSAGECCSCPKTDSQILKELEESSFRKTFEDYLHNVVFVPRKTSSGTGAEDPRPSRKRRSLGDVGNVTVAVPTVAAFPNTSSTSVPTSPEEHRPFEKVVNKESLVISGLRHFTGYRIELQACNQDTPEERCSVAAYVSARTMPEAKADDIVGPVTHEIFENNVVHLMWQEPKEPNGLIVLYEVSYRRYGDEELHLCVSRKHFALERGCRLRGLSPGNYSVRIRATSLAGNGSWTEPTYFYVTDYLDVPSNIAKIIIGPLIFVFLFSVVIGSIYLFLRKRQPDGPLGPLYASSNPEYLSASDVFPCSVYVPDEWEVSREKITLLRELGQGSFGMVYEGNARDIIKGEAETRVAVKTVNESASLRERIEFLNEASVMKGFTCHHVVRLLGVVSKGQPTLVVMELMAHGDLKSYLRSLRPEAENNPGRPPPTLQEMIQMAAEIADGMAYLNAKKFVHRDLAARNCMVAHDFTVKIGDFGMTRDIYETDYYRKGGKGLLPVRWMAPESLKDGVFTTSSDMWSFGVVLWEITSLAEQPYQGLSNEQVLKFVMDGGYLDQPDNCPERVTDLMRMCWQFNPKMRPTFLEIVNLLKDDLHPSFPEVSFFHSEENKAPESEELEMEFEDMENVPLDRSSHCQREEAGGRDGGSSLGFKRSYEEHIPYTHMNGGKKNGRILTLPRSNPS
Method: as §5

[7] = test system: HCC 1187; experiment: Cell Titer-Glo cell viability: HCC 1187; type: cell-based; details: Homo sapiens
Method: as §1, §2, §3

[8] = test system: UACC 812; experiment: Cell Titer-Glo cell viability: UACC 812; type: cell-based; details: Homo sapiens
Method: as §1, §2, §3
(§6) The inhibitory effects of Compound 8a were tested in two cell lines.

[9] = test system: COLO 205; experiment: Cell Titer-Glo cell viability: COLO 205; type: cell-based; details: Homo sapiens, COLO 205, 72 h
Method: as §2, §4, §3

[10] = test system: T47D; experiment: Cell Titer-Glo cell viability: T47D; type: cell-based; details: Homo sapiens, breast cancer
Method: as §1, §2, §3

[11] = target: T2, AXL (Homo sapiens, UniProt P30530); experiment: Caliper kinase profiling: AXL; details: for inhibition of AXL in panel of 11 kinases: 0.01 μM; for inhibition at 0.01 µM: read-out: Average % Inh @ 10 nM
T2 sequence (P30530 26-894): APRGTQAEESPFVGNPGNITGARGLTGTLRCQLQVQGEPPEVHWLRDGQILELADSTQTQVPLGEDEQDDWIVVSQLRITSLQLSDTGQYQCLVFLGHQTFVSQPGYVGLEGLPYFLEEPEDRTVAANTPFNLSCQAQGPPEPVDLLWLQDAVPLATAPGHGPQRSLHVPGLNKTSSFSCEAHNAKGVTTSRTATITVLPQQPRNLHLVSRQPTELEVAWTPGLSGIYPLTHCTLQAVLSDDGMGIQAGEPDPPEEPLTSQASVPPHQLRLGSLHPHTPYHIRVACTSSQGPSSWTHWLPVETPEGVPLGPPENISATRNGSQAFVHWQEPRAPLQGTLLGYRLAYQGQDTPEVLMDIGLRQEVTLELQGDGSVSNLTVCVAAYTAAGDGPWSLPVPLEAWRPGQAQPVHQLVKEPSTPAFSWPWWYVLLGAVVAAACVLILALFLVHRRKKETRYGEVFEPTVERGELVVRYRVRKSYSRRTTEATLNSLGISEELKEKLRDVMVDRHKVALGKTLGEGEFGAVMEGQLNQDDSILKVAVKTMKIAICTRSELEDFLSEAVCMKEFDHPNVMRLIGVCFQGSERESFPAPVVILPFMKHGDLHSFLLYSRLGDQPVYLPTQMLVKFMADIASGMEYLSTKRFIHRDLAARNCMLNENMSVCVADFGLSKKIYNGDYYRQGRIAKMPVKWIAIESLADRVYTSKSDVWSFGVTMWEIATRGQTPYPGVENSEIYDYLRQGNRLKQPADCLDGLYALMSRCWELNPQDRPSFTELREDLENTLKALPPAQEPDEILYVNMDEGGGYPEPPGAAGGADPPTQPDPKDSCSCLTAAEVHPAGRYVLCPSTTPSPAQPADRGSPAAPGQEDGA
Method: The compound was tested at concentrations of 1.0×10^−8 and 1.0×10^−9 M in the RapidKinase192™ panel in duplicate. […] The screening was performed using the Caliper EZReader2, a 4-sipper LabChip, and ProfilerPro Kinase Selectivity Assay Kits 1 and 2. The assay measures the conversion of a fluorescent peptide substrate to a phosphorylated product. Briefly, the reaction mixture was introduced through a capillary sipper onto the microfluidic chip, where the substrate and product were electrophoretically separated and detected by laser-induced fluorescence. The time-dependent fluorescence signal indicates the extent of the reaction.
The kinases tested were AurA, AurB, AurC, AXL, FAK2, IGF1R, InsR, Mer, MET, TrkB and TrkC.
The assays were conducted using the Caliper LabChip 3000 and a 12-sipper LabChip as described above.

[12] = test system: MDA MB 175; experiment: Cell Titer-Glo cell viability: MDA MB 175; type: cell-based
Method: as §1, §2, §3, §6

[13] = test system: SW-620; experiment: Cell Titer-Glo cell viability: SW-620; type: cell-based; details: Homo sapiens, SW-620, 72 h, SW-620, metastatic colorectal cancer
Method: as §2, §4, §3

[14] = test system: MDA MB 231; experiment: Cell Titer-Glo cell viability: MDA MB 231; type: cell-based; details: Homo sapiens, MDAMB231, breast cancer
Method: as §1, §2, §3

[15] = test system: OVCAR-3; experiment: Cell Titer-Glo cell viability: OVCAR-3; type: cell-based; details: Homo sapiens, OVCAR3, ovarian cancer
Method: as §1, §2, §3

[16] = test system: A549; experiment: Cell Titer-Glo cell viability: A549; type: cell-based; details: Homo sapiens, A549, 72 h, A549, non-small lung carcinoma
Method: as §2, §4, §3

[17] = 72 h incubation, Cell Titer-Glo
[18] = HL60, promyelocytic leukemia, 72 h incubation, Cell Titer-Glo
[19] = activated IGF-1R, read-out: IC50
[20] = BT-20, breast cancer, 72 h incubation, Cell Titer-Glo
[21] = HCC1187, HCC-1187, breast cancer, 72 h incubation, Cell Titer-Glo
[22] = UACC 812, breast cancer, 72 h incubation, Cell Titer-Glo
[23] = COLO205, colon cancer, 72 h incubation, Cell Titer-Glo
[24] = MDA-MB-175, breast cancer, 72 h incubation, Cell Titer-Glo
[25] = HL60, promyelocytic leukemia (second entry of the table), 72 h
[26] = HL-60, promyelocytic leukemia, 72 h
[27] = IGF-1R, ATP 100 μM, run N1, read-out: IC50 (M) N1
[28] = IGF-1R, ATP 100 μM, run N2, read-out: IC50 (M) N2
[29] = COLO-205, colon adenocarcinoma, 72 h

Row | Structure (SMILES) | IC50 [1, 17] [nM] | IC50 [2, 18] [nM] | IC50 [3, 19] | IC50 [4, 17] [nM] | IC50 [5, 20] [nM] | IC50 ([6]; activated IR, read-out: IC50) | IC50 [7, 21] [nM] | IC50 [8, 22] [nM] | IC50 [9, 23] [nM] | IC50 [10, 17] [nM] | inhibition of AXL in panel of 11 kinases [11] | IC50 [12, 24] [nM] | IC50 [13, 17] [nM] | IC50 [14, 17] [nM] | IC50 [15, 17] [nM] | IC50 [16, 17] [nM] | IC50 [2, 25] [nM] | IC50 [2, 26] [nM] | Hill Slope N1 ([3]; IGF-1R, ATP 100 μM, run N1) | IC50 [3, 27] [M] | also measured
1 | O=C(Nc1cnccn1)C1CCCN1c1nc2c(c(Nc3cc(C4CC4)[nH]n3)n1)CCC2 (single isomer, unassigned) [Compound 6b] | < 1000 | < 1000 | 6.5e-09 M | < 1000 | 1000 | 4.13e-08 M | < 1000 | 1000 | < 100 | < 1000 | strongly inhibited | < 1000 | < 1000 | < 1000 | < 100 | < 1000 |  |  |  |  | 
2 | O=C(Nc1ccc(F)nc1)C1CCCN1c1nc2c(c(Nc3cc(C4CC4)[nH]n3)n1)CCC2 (single isomer, unassigned) [Compound 2b, 1-(4-(5-cyclopropyl-1H-pyrazol-3-ylamino)-6,7-dihydro-5H-cyclopenta[d]pyrimidin-2-yl)-N-(6-fluoropyridin-3-yl)pyrrolidine-2-carboxamide] | 1000 | < 1000 | 6.1e-09 M |  | 1000 | 5.7e-09 M | 100 | < 10000 | < 100 | 1000 |  | < 10000 | < 1000 | 1000 | < 1000 | < 1000 | < 10 | < 10000 | 1.195 | 7.24e-09 | Hill Slope N2 ([3]; IGF-1R, ATP 100 μM, run N2): 1.384; IC50 [3, 28]: 5.29e-09 M; Hill Slope N1 ([6]; IR, ATP 50 μM, run N1): 1.34; IC50 ([6]; IR, ATP 50 μM, run N1, read-out: IC50 (M) N1): 5.51e-09 M; Hill Slope N2 ([6]; IR, ATP 50 μM, run N2): 1.13; IC50 ([6]; IR, ATP 50 μM, run N2, read-out: IC50 (M) N2): 4.07e-09 M; IC50 [9, 29]: < 10 nM; inhibition at 0.01 µM [11]: 40 to 59%; inhibition at 0.1 µM ([11]; read-out: Average % Inh @ 100 nM): > 60%; inhibition at 1 µM ([11]; read-out: Average % Inh @ 1 μM): > 60%; IC50 ([13]; 72 h): 100 nM; IC50 ([16]; 72 h): 1000 nM
3 | CC(C)c1cc(Nc2nc(N3CCCC3C(=O)Nc3ccc(F)nc3)nc3c2CCC3)n[nH]1 (single isomer, unassigned) [Compound 8b] |  |  | 5.1e-09 M |  |  |  |  |  |  |  |  |  |  |  |  |  | < 10 | 10 | 1.042 | 3.11e-09 | IC50 ([1]; 72 h): < 10000 nM; Hill Slope N2 ([3]; IGF-1R, ATP 100 μM, run N2): 1.307; IC50 [3, 28]: 5.49e-09 M; IC50 ([4]; 72 h): 1000 nM; IC50 ([5]; BT-20, BT20, breast cancer, 72 h): < 10000 nM; IC50 ([7]; HCC1187, breast cancer, 72 h): < 10000 nM; IC50 ([8]; UACC-812, UACC812, breast cancer, 72 h): < 10000 nM; IC50 [9, 29]: < 10 nM; IC50 ([10]; 72 h): < 1000 nM; IC50 [11]: 9.76 nM; inhibition at 0.001 µM ([11]; read-out: Average % Inh @ 1 nM): < 39%; inhibition at 0.01 µM [11]: 40 to 59%; IC50 ([12]; MDAMB175, breast cancer, 72 h): < 10000 nM; IC50 ([13]; 72 h): 1000 nM; IC50 ([14]; 72 h): 10000 nM; IC50 ([15]; 72 h): 1000 nM; IC50 ([16]; 72 h): < 10000 nM
4 | O=C(Nc1ccc(F)nc1)C1CCN1c1nc2c(c(Nc3cc(C4CC4)[nH]n3)n1)CCC2 (racemic) [Compound 5, 1-(4-(5-cyclopropyl-1H-pyrazol-3-ylamino)-6,7-dihydro-5H-cyclopenta[d]pyrimidin-2-yl)-N-(6-fluoropyridin-3-yl)azetidine-2-carboxamide] | < 1000 | < 100 | 1.3e-08 M and 1.7e-08 M | < 10000 | < 10000 | 8.3e-09 M and 1.2e-08 M | < 1000 | < 100000 | 100 | < 1000 | strongly inhibited | 1000 | < 1000 | < 10000 | < 1000 | < 1000 |  |  |  |  | inhibition at 0.03 µM ([3]; activated IGF-1R, 30 nM, average, read-out: % Inh @ 30 nM Avg): 66%; inhibition at 0.03 µM ([6]; activated IR, 30 nM, average, read-out: % Inh @ 30 nM Avg): 76%
